Measured values from the supplement of paper PMC10307832.

How the values were obtained:
Assay in all cases: relative viability (nuclei count vs DMSO), 5 days (fraction); higher = more cells survive
Afatinib + Bortezomib = compound: CN(C)C/C=C/C(=O)Nc1cc2c(Nc3ccc(F)c(Cl)c3)ncnc2cc1O[C@H]1CCOC1 [Afatinib] + CC(C)C[C@H](NC(=O)[C@H](Cc1ccccc1)NC(=O)c1cnccn1)B(O)O [Bortezomib] (partner 0.002 µM)
How it was run: (§1)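 Relative viability divides the nuclei count in treated wells by that in vehicle wells. Lung cancer cell lines were seeded in 1536-well plates, dosed by pin tool the next day, and fixed and stained after 5 days in one step with final 0.05% Triton X-100, 1% formaldehyde and 1 ug/ml Hoechst. Dosing was a single drug or a fixed anchor-drug dose plus five library-drug doses (not always all listed) in √10 steps, and values are medians of duplicate plates imaged at 4×.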

Afatinib + Pemetrexed = compound: CN(C)C/C=C/C(=O)Nc1cc2c(Nc3ccc(F)c(Cl)c3)ncnc2cc1O[C@H]1CCOC1 [Afatinib] + Nc1nc2[nH]cc(CCc3ccc(C(=O)N[C@@H](CCC(=O)O)C(=O)O)cc3)c2c(=O)[nH]1 [Pemetrexed] (partner 0.2 µM)
How it was run: as §1

Afatinib + Alpelisib = compound: CN(C)C/C=C/C(=O)Nc1cc2c(Nc3ccc(F)c(Cl)c3)ncnc2cc1O[C@H]1CCOC1 [Afatinib] + Cc1nc(NC(=O)N2CCC[C@H]2C(N)=O)sc1-c1ccnc(C(C)(C)C(F)(F)F)c1 [Alpelisib] (partner 2 µM)
How it was run: as §1

Afatinib + Olaparib = compound: CN(C)C/C=C/C(=O)Nc1cc2c(Nc3ccc(F)c(Cl)c3)ncnc2cc1O[C@H]1CCOC1 [Afatinib] + O=C(c1cc(Cc2n[nH]c(=O)c3ccccc23)ccc1F)N1CCN(C(=O)C2CC2)CC1 [Olaparib] (partner 8 µM)
How it was run: as §1

Row | Cell Line | relative viability (Afatinib + Bortezomib; first compound 0.005 µM) | relative viability (Afatinib + Bortezomib; first compound 0.01581 µM) | relative viability (Afatinib + Bortezomib; first compound 0.05 µM) | relative viability (Afatinib + Bortezomib; first compound 0.1581 µM) | relative viability (Afatinib + Bortezomib; first compound 0.5 µM) | relative viability (Afatinib + Pemetrexed; first compound 0.005 µM) | relative viability (Afatinib + Pemetrexed; first compound 0.01581 µM) | relative viability (Afatinib + Pemetrexed; first compound 0.05 µM) | relative viability (Afatinib + Pemetrexed; first compound 0.1581 µM) | relative viability (Afatinib + Pemetrexed; first compound 0.5 µM) | relative viability (Afatinib + Alpelisib; first compound 0.005 µM) | relative viability (Afatinib + Alpelisib; first compound 0.01581 µM) | relative viability (Afatinib + Alpelisib; first compound 0.05 µM) | relative viability (Afatinib + Alpelisib; first compound 0.1581 µM) | relative viability (Afatinib + Alpelisib; first compound 0.5 µM) | relative viability (Afatinib + Olaparib; first compound 0.005 µM) | relative viability (Afatinib + Olaparib; first compound 0.01581 µM) | relative viability (Afatinib + Olaparib; first compound 0.05 µM) | relative viability (Afatinib + Olaparib; first compound 0.1581 µM) | relative viability (Afatinib + Olaparib; first compound 0.5 µM)
1 | 201T | 1.09 | 0.921 | 1.02 | 1.07 | 1.13 | 0.294 | 0.353 | 0.379 | 0.38 | 0.31 | 1 | 0.961 | 0.922 | 0.918 | 0.935 | 0.846 | 0.826 | 0.752 | 0.78 | 0.854
2 | A-427 | 0.981 | 1.05 | 1 | 1.05 | 1.04 | 1.05 | 1.03 | 1.05 | 0.969 | 0.983 | 1.04 | 1.11 | 1.18 | 0.973 | 1.09 | 0.79 | 0.759 | 0.779 | 0.776 | 0.789
3 | BEN | 0.918 | 0.651 | 0.882 | 0.957 | 0.905 | 0.801 | 0.785 | 0.753 | 0.772 | 0.819 | 1.25 | 1.07 | 1.18 | 1.06 | 1.1 | 1.23 | 1.23 | 1.18 | 1.11 | 1.08
4 | CAL-12T | 1.2 | 0.81 | 0.608 | 0.56 | 0.644 | 1.22 | 0.928 | 1.46 | 0.491 | 0.855 | 1.18 | 0.973 | 0.929 |  | 0.584 | 0.763 | 0.668 | 0.616 | 0.47 | 0.497
5 | COR-L23 | 1.1 | 1.04 | 1.11 | 1.03 | 0.988 | 0.22 | 0.201 | 0.214 | 0.201 | 0.192 | 0.922 | 0.728 | 0.935 | 0.685 | 0.752 | 0.325 | 0.325 | 0.358 | 0.369 | 0.366
6 | COR-L 105 | 0.3 | 0.31 | 0.334 | 0.262 | 0.362 | 0.837 | 0.503 | 0.542 | 0.353 | 0.377 | 0.934 | 0.45 | 0.353 | 0.255 | 0.241 | 0.737 | 0.483 | 0.422 | 0.331 | 0.34
7 | EKVX | 0.811 | 0.655 | 0.468 | 0.308 | 0.199 | 0.318 | 0.271 | 0.254 | 0.187 | 0.185 | 0.713 | 0.704 | 0.46 | 0.187 | 0.156 | 0.602 | 0.687 | 0.534 | 0.283 | 0.227
8 | EMC-BAC-2 | 1.03 | 1.05 | 1 | 0.927 | 1.03 | 0.441 | 0.496 | 0.462 | 0.523 | 0.511 | 0.734 | 0.635 | 0.635 | 0.603 | 0.634 | 0.53 | 0.501 | 0.595 | 0.554 | 0.531
9 | EPLC-272H | 0.879 | 0.88 | 0.905 | 0.78 | 0.861 | 0.349 | 0.381 | 0.301 | 0.285 | 0.318 | 0.775 | 0.818 | 0.737 | 0.691 | 0.731 | 0.567 | 0.776 | 0.727 | 0.734 | 0.595
10 | H3255 | 0.252 | 0.194 | 0.221 | 0.184 | 0.231 | 0.365 | 0.313 | 0.306 | 0.307 | 0.273 | 0.209 | 0.135 | 0.168 | 0.123 | 0.123 | 0.332 | 0.273 | 0.277 | 0.277 | 0.236
11 | HARA | 1.02 | 0.763 | 0.683 | 0.836 | 0.754 | 0.21 |  | 0.185 | 0.217 | 0.225 | 0.45 | 0.652 | 0.397 | 0.313 | 0.397 | 0.688 |  | 0.344 | 0.462 | 0.391
12 | HCC-15 | 1.04 | 1.09 | 1.04 | 1.04 | 1.03 | 0.226 | 0.222 |  | 0.207 | 0.234 | 0.855 | 0.816 | 0.902 | 0.855 | 0.889 | 0.662 | 0.765 | 0.744 | 0.668 | 0.722
13 | HCC-44 | 1.04 | 0.91 | 0.891 | 0.903 | 1.01 | 0.654 | 0.645 | 0.733 | 0.657 | 0.661 | 0.803 | 0.854 | 0.727 | 0.728 | 0.872 | 0.958 | 0.921 | 0.974 | 1 | 1.01
14 | HCC-78 | 0.528 | 0.514 | 0.566 | 0.362 | 0.434 | 0.924 | 0.869 | 0.904 | 0.915 | 0.902 | 0.373 | 0.345 | 0.273 | 0.228 | 0.217 | 0.792 | 0.932 | 0.852 | 0.717 | 0.667
15 | HCC-366 | 1.1 | 1.07 | 1.08 | 0.972 | 1.06 | 0.16 | 0.173 | 0.146 | 0.196 | 0.168 | 0.375 | 0.423 | 0.41 | 0.308 | 0.485 | 0.299 | 0.38 | 0.391 | 0.3 | 0.367
